Consider 1 compound from patent US20220347096A1, “LIPOSOMAL CANNABINOIDS AND USES THEREOF” (YISSUM RESEARCH DEVELOPMENT COMPANY OF THE HEBREW …, priority 2019, published 2022).

A short description of this data set: Plasma CBD profile and PK after IV administration. Type of data set: in vivo. Conditions: mice; for Plasma CBD, Mean ± SD: 12 mg/kg. The protocol: CBD was extracted from plasma samples that were spiked with cannabigerol (CBG, 1 mg/ml in methanol, Sigma, Cat. C-141-1) used as internal standard (IS) followed by dilution of the plasma five-fold in acetonitrile. After vigorous vortex it was centrifuged, and the upper phase was analyzed. Final IS concentration in the samples was 100 ng/ml.
Plasma extracts were analyzed by LCMS method. Specifically, LC-MS/MS analyses were conducted on a Sciex (Framingham, Mass., USA) Triple Quad™ 5500 mass spectrometer coupled with a Shimadzu (Kyoto, Japan) UHPLC System. The concentrations were calculated based on a calibration curve of CBD in plasma at a range of 1-1,000 ng/ml having 100 ng/ml of IS.
IV formulation: The formulation used for IV administration was 10 mg/g CBD formulation solubilized in Cremophor:Ethanol 50:50 solution. This formulation was diluted 10-fold with saline prior to injection to result in 1 mg/ml post dilution concentration. The diluted formulation was used within 1 h after preparation. […]
At the time-points detailed below, 3 mice were euthanized with CO2 and terminal blood was immediately collected from the retro-orbital sinus in labeled 0.5 ml K3EDTA blood collection tubes (Mini Collect, Greiner-bio-one, Austria). The blood was centrifuged at 2000×g for 10 minutes before plasma was extracted, collected in labeled tubes and frozen at −20° C. immediately after collection. The samples were then stored at −80° C. pending analysis. […]

The mark [1] stands for this setting: female, BALB/C, mouse, in vivo, IV 12 mg/kg.

For orientation: AUC(0-inf) means the area under the concentration-time curve extrapolated to infinity. As a reminder, the Cmax is the highest concentration seen after dosing. One may read the Tmax as the time from dosing to the highest level. The term clearance denotes the rate of elimination divided by the concentration. Low values mean a low capacity for elimination, high ones a high capacity for elimination. The half-life is the time needed for the level to fall by half in the phase considered. The low end stands for rapid decline, the high end for slow decline. In the case of `C=C(C)[C@@H]1CCC(C)=C[C@H]1c1c(O)cc(CCCCC)cc1O` [CBD, 2-[(1R,6R)-6-Isopropenyl-3-methylcyclohex-2-en-1-yl]-5-pentylbenzene-1,3-diol], under setting [1], the area under the curve AUC(0-inf) came out at 5020 ng·h/mL, the C0 was 9460 ng/mL, the highest level (Cmax) was 8860 ng/mL and the time to peak (Tmax) was found to be 4.98 min. Under setting [1], this compound gave a clearance of 39.8 mL/min/kg and a half-life of 101 min. Besides, the concentration at 5 min (female, BALB/C, mouse, in vivo, IV 12 mg/kg in Cremophor:Ethanol diluted with saline, 5 min, read-out: Plasma CBD, Mean ± SD) came to 8860 ng/mL. For the same compound, the concentration at 1 h (female, BALB/C, mouse, in vivo, IV 12 mg/kg, 1 h, read-out: Plasma CBD, Mean ± SD) is 177 ± 40 ng/mL. In addition, under “female, BALB/C, mouse, in vivo, IV 12 mg/kg, 4 h, read-out: Plasma CBD, Mean ± SD”, the concentration at 4 h worked out at 35 ± 11 ng/mL. Where the note is “female, BALB/C, mouse, in vivo, IV 12 mg/kg, 8 h, read-out: Plasma CBD, Mean ± SD”, the concentration at 8 h stood at 9.5 ng/mL. Also, the AUC (female, BALB/C, mouse, in vivo, IV 12 mg/kg, read-out: AUC0—Tlast) worked out at 5000 ng·h/mL. For the setting “female, BALB/C, mouse, in vivo, IV 12 mg/kg, read-out: Vz”, the Vd is 5.79 L/kg. Besides, for the setting “IV 12 mg/kg”, the “AUC0—Tlast/Dose” value is 417 (hr*ng/mL)/(mg/kg) and the Cmax/Dose is 738 (ng/mL)/(mg/kg). The “Plasma CBD, Mean ± SD” value (IV 12 mg/kg in Cremophor:Ethanol diluted with saline, 5 min) is recorded as 8,856 ± 1,451 ng/ml. For the setting “IV 12 mg/kg, 5 min”, the “Mean plasma CBD concentration normalized to dose (±SD)” value came out at 757 ± 124 ng/mL/mg/kg. Moreover, the “Mean plasma CBD concentration normalized to dose (±SD)” value (IV 12 mg/kg, 1 h) is 15 ± 3.46 ng/mL/mg/kg. Besides, the “Mean plasma CBD concentration normalized to dose (±SD)” value (IV 12 mg/kg, 4 h) was determined as 2.99 ± 0.90 ng/mL/mg/kg. Where the note is “IV 12 mg/kg, 8 h”, the “Mean plasma CBD concentration normalized to dose (±SD)” value amounted to 0.81 ± 0.31 ng/mL/mg/kg and the “Plasma CBD, Mean ± SD” value turned out to be 9.50 ± 3.67 ng/mL. Further, where the note is “IV 12 mg/kg, 24 h”, the “Mean plasma CBD concentration normalized to dose (±SD)” value is “BLOD”; the “Plasma CBD, Mean ± SD” value is “below the limit of detection and BLOD”. Further, for the setting “IV 12 mg/kg, 48 h”, the “Mean plasma CBD concentration normalized to dose (±SD)” value is given as “BLOD”; the “Plasma CBD, Mean ± SD” value is “below the limit of detection and BLOD”.
